Structures can show the parent of a compound that is named as a salt.
Target: SARS-CoV-2 Mac1 (Severe acute respiratory syndrome coronavirus 2, UniProt P0DTD1)
Assay: biochemical
Conditions: for inhibition at 100 µM: read-out: %inhibition; for %inhibition: 100 µM, inhibitor

SMILES	inhibition at 100 µM	%inhibition
CCOC(=O)CCC(=O)O[C@H]1[C@H](O[C@@H]2[C@@H](C)[C@H](O[C@H]3C[C@@](C)(OC)[C@@H](O)[C@H](C)O3)[C@@H](C)C(=O)O[C@H](CC)[C@@](C)(O)[C@H](O)[C@@H](C)C(=O)[C@H](C)C[C@@]2(C)O)O[C@H](C)C[C@@H]1N(C)C [Erythromycin Ethylsuccinate]	0%	
CC[C@H]1OC(=O)[C@H](C)[C@@H](O[C@H]2C[C@@](C)(OC)[C@@H](O)[C@H](C)O2)[C@H](C)[C@@H](O[C@@H]2O[C@H](C)C[C@H](N(C)C)[C@H]2O)[C@](C)(O)C[C@@H](C)C(=O)[C@H](C)[C@@H](O)[C@]1(C)O [Erythromycin thiocyanate]		1.029%
CC[C@H]1OC(=O)[C@H](C)[C@@H](O[C@H]2C[C@@](C)(OC)[C@@H](O)[C@H](C)O2)[C@H](C)[C@@H](O[C@@H]2O[C@H](C)C[C@H](N(C)C)[C@H]2O)[C@](C)(O)C[C@@H](C)C(=O)[C@H](C)[C@@H](O)[C@]1(C)O [Erythromycin]		0%
C/C=C(\C)C(=O)O[C@H]1[C@H](OC(C)=O)[C@@]2(CO)C(CC1(C)C)C1=CCC3[C@@]4(C)CCC(O[C@@H]5O[C@H](C(=O)O)[C@@H](O[C@@H]6O[C@H](CO)[C@@H](O)[C@H](O)[C@H]6O)[C@H](O)[C@H]5O[C@@H]5O[C@H](CO)[C@@H](O)[C@H](O)[C@H]5O)[C@](C)(CO)C4CC[C@@]3(C)[C@]1(C)C[C@H]2O (stereo partly drawn) [Escin]	6.9%	
CN(C)CCC[C@@]1(c2ccc(F)cc2)OCc2cc(C#N)ccc21 [Escitalopram Oxalate]	0%	
CC(=O)O[C@H]1Cc2ccccc2N(C(N)=O)c2ccccc21 [Eslicarbazepine Acetate]	0%	
COC(=O)CCc1ccc(OCC(O)CNC(C)C)cc1 (stereo not drawn) [Esmolol HCl]	12%	
COc1ccc2[nH]c([S@@+]([O-])Cc3ncc(C)c(OC)c3C)nc2c1 [Esomeprazole sodium]		0%
C[C@]12CC[C@@H]3c4ccc(OC(=O)c5ccccc5)cc4CC[C@H]3[C@@H]1CC[C@@H]2O [Estradiol Benzoate]	20.5%	
C[C@]12CC[C@@H]3c4ccc(O)cc4CC[C@H]3[C@@H]1CC[C@@H]2OC(=O)CCC1CCCC1 [Estradiol Cypionate]	0%	
CCCCC(=O)O[C@H]1CC[C@H]2[C@@H]3CCc4cc(O)ccc4[C@H]3CC[C@]12C [Estradiol valerate]	3.33%	
C[C@]12CC[C@@H]3c4ccc(O)cc4CC[C@H]3[C@@H]1CC[C@@H]2O [Estradiol]	0%	
C[C@]12CC[C@@H]3c4ccc(O)cc4CC[C@H]3[C@@H]1C[C@@H](O)[C@@H]2O [Estriol]	0%	
C[C@]12CC[C@@H]3c4ccc(O)cc4CC[C@H]3[C@@H]1CCC2=O [Estrone]	0%	
C[C@]12CC[C@@H]3c4ccc(OS(=O)(=O)O)cc4CC[C@H]3[C@@H]1CCC2=O [Estropipate]	8.24%	
CCOc1ccc2nc3cc(N)ccc3c(N)c2c1 [Ethacridine lactate monohydrate]	25.8%	
CC[C@@H](CO)NCCN[C@@H](CC)CO [Ethambutol 2HCl]	7.53%	
O=S(=O)(O)c1cc(O)ccc1O [Ethamsylate]	0%	
C#C[C@]1(O)CC[C@H]2[C@@H]3CCc4cc(O)ccc4[C@H]3CC[C@@]21C [Ethinyl Estradiol]	0%	
CCc1cc(C(N)=S)ccn1 [Ethionamide]	19.8%	
CCC1(C)CC(=O)NC1=O (stereo not drawn) [Ethosuximide]	0%	
CCOC(=O)c1ccc(O)cc1 [Ethylparaben]	2.11%	
C#C[C@]1(OC(C)=O)CC[C@H]2[C@@H]3CCC4=C[C@@H](OC(C)=O)CC[C@@H]4[C@H]3CC[C@@]21C [Ethynodiol diacetate]	0%	

SMILES	inhibition at 100 µM	%inhibition
CC(O)(P(=O)(O)O)P(=O)(O)O [Etidronate]	0%	
CCc1cccc2c3c([nH]c12)C(CC)(CC(=O)O)OCC3 (stereo not drawn) [Etodolac]	0%	
CC(C)(Oc1ccc(Cl)cc1)C(=O)OCCOC(=O)c1cccnc1 [Etofibrate]	4.59%	
CCOC(=O)c1cncn1[C@H](C)c1ccccc1 [Etomidate]	8.82%	
C#C[C@]1(O)CC[C@H]2[C@@H]3CCC4=CC(=O)CC[C@@H]4[C@H]3C(=C)C[C@@]21CC [Etonogestrel]	0%	
COc1cc([C@@H]2c3cc4c(cc3[C@@H](O[C@@H]3O[C@@H]5CO[C@@H](C)O[C@H]5[C@H](O)[C@H]3O)[C@H]3COC(=O)[C@H]23)OCO4)cc(OC)c1O [Etoposide]	25.5%	
Cc1ccc(-c2ncc(Cl)cc2-c2ccc(S(C)(=O)=O)cc2)cn1 [Etoricoxib]	0%	
Cc1cc(C#N)cc(C)c1Oc1nc(Nc2ccc(C#N)cc2)nc(N)c1Br [Etravirine (TMC125)]	5.29%	
CCOC(=O)/C=C(C)/C=C/C=C(C)/C=C/c1c(C)cc(OC)c(C)c1C [Etretinate]	24.9%	
Cc1cc(C)c2c(c1)[C@@H](N(Cc1cc(C(F)(F)F)cc(C(F)(F)F)c1)c1nnn(C)n1)CCCN2C[C@H]1CC[C@H](C(=O)O)CC1 [Evacetrapib (LY2484595)]	28.7%	
CO[C@H]1C[C@@H]2CC[C@@H](C)[C@@](O)(O2)C(=O)C(=O)N2CCCC[C@H]2C(=O)O[C@H]([C@H](C)C[C@@H]2CC[C@@H](OCCO)[C@H](OC)C2)CC(=O)[C@H](C)/C=C(\C)[C@@H](O)[C@@H](OC)C(=O)[C@H](C)C[C@H](C)/C=C/C=C/C=C/1C [Everolimus (RAD001)]	11.2%	
Cn1c(COP(=O)(NCCBr)NCCBr)cnc1[N+](=O)[O-] [Evofosfamide (TH-302)]	12.7%	
C=C1C[C@@H]2[C@H](CC[C@]3(C)C(=O)CC[C@@H]23)[C@@]2(C)C=CC(=O)C=C12 [Exemestane]	11.1%	
O=C1[C@H](CC[C@H](O)c2ccc(F)cc2)[C@@H](c2ccc(O)cc2)N1c1ccc(F)cc1 [Ezetimibe]	5.79%	
CC(=O)OCC(CCn1cnc2cnc(N)nc21)COC(C)=O [Famciclovir]	0%	
NC(N)=Nc1nc(CSCC/C(N)=N/S(N)(=O)=O)cs1 [Famotidine]	1.86%	
C[C@@H](O)[C@H]1C(=O)N2C(C(=O)O)=C([C@H]3CCCO3)S[C@H]12 [Faropenem Sodium]	0%	
O=S(=O)(c1cccc2cnccc12)N1CCCNCC1 [Fasudil (HA-1077) HCl]	0%	
NC(=O)c1nc(F)cnc1O [Favipiravir (T-705)]	0.111%	
Cc1nc(-c2ccc(OCC(C)C)c(C#N)c2)sc1C(=O)O [Febuxostat]	4.8%	
Cc1cnc(Nc2ccc(OCCN3CCCC3)cc2)nc1Nc1cccc(S(=O)(=O)NC(C)(C)C)c1 [Fedratinib (SAR302503, TG101348)]	17.5%	
NC(=O)OCC(COC(N)=O)c1ccccc1 [Felbamate]	22%	
O=C(O)CCC(=O)c1ccc(-c2ccccc2)cc1 [Fenbufen]	0%	

SMILES	inhibition at 100 µM	%inhibition
CCCCC(O)c1ccccc1 (stereo not drawn) [Fenipentol]	4.29%	
CC(C)OC(=O)C(C)(C)Oc1ccc(C(=O)c2ccc(Cl)cc2)cc1 [Fenofibrate]	28.9%	
CC(C)(Oc1ccc(C(=O)c2ccc(Cl)cc2)cc1)C(=O)O [Fenofibric acid]	0%	
Oc1ccc(C2CNCCc3c2cc(O)c(O)c3Cl)cc1 (stereo not drawn) [Fenoldopam mesylate]	0%	
CC(C(=O)O)c1cccc(Oc2ccccc2)c1 (stereo not drawn) [Fenoprofen Calcium]		9.442%
CC(C(=O)O)c1cccc(Oc2ccccc2)c1 (stereo not drawn) [Fenoprofen calcium hydrate]	8.96%	
O=C1NCC2(CCN(CCc3ccccc3)CC2)O1 [Fenspiride HCl]	26.5%	
Clc1ccc(C(Cn2ccnc2)OCc2ccc(Sc3ccccc3)cc2)c(Cl)c1 (stereo not drawn) [Fenticonazole Nitrate]	0%	
CC(C)C(=O)Oc1ccc(CO)cc1[C@H](CCN(C(C)C)C(C)C)c1ccccc1 [Fesoterodine Fumarate]	0%	
CC(C)(C(=O)O)c1ccc(C(O)CCCN2CCC(C(O)(c3ccccc3)c3ccccc3)CC2)cc1 (stereo not drawn) [Fexofenadine HCl]	9.61%	
CCc1c(Cl)c(O)c(Cl)c(O)c1C(=O)O[C@H]1[C@H](O)[C@H](OC)[C@H](OC/C2=C\C=C\C[C@H](O)/C(C)=C/[C@H](CC)[C@@H](O[C@@H]3OC(C)(C)[C@@H](OC(=O)C(C)C)[C@H](O)[C@@H]3O)/C(C)=C/C(C)=C/C[C@@H]([C@@H](C)O)OC2=O)O[C@@H]1C [Fidaxomicin]	5.76%	
O=C(Nc1nc2cccc(-c3ccc(CN4CCS(=O)(=O)CC4)cc3)n2n1)C1CC1 [Filgotinib (GLPG0634)]	17%	
CCCCc1nc(C)c(CC(=S)N(C)C)c(=O)n1Cc1ccc(-c2ccccc2-c2nnn[nH]2)cc1 [Fimasartan]	22.3%	
CC(C)(C)NC(=O)[C@H]1CC[C@H]2[C@@H]3CC[C@H]4NC(=O)C=C[C@]4(C)[C@H]3CC[C@]12C [Finasteride]	0%	
CCCCCCCCc1ccc(CCC(N)(CO)CO)cc1 [Fingolimod (FTY720) HCl]	33%	
CN1CC[C@H](c2c(O)cc(O)c3c(=O)cc(-c4ccccc4Cl)oc23)[C@H](O)C1 [Flavopiridol (Alvocidib)]	50.4%	
Cc1c(-c2ccccc2)oc2c(C(=O)OCCN3CCCCC3)cccc2c1=O [Flavoxate HCl]	0%	
O=c1[nH]c2ccccc2n1CCN1CCN(c2cccc(C(F)(F)F)c2)CC1 [Flibanserin]	0%	
CCC(=O)c1c(O)cc(O)cc1O [Flopropione]	7.24%	
CS(=O)(=O)c1ccc([C@@H](O)[C@@H](CF)NC(=O)C(Cl)Cl)cc1 [Florfenicol]	30.4%	
O=c1[nH]c(=O)n([C@H]2C[C@H](O)[C@@H](CO)O2)cc1F [Floxuridine]	0%	
COC(=O)Nc1nc2cc(C(=O)c3ccc(F)cc3)ccc2[nH]1 [Flubendazole]	4.36%	
Cc1onc(-c2c(F)cccc2Cl)c1C(=O)N[C@@H]1C(=O)N2[C@@H]1SC(C)(C)[C@@H]2C(=O)O [Flucloxacillin sodium]	1.41%	
